For 9 compounds, EC50 results are on record in patent US9175003B2, “Substituted azoanthracene derivatives and intermediates for preparation thereof” (TransTech Pharma, LLC, priority 2009, dated 2015).

The assay deals with human GLP-1 receptor (Homo sapiens (Human), UniProt P43220). Conditions: read-out: Mean EC50; cAMP, HTRF detection, 30 min at 37° C., HEK-293 cells expressing cloned human GLP-1 receptor.
Sequence of human GLP-1 receptor (P43220 24-463): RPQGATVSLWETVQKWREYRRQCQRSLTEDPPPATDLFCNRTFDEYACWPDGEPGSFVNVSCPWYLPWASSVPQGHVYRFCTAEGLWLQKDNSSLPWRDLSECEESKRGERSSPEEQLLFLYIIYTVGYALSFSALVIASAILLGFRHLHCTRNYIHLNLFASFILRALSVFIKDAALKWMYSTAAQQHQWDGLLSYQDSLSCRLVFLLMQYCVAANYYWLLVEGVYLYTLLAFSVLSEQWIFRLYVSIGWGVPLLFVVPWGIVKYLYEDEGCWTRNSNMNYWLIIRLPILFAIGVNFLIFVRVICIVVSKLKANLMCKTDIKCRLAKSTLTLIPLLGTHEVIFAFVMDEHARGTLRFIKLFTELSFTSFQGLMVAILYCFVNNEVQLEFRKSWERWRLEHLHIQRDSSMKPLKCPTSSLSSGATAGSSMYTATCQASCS
As to `Cc1nc(C(=O)N2Cc3cc4c(cc3C[C@H]2C(=O)N[C@@H](Cc2ccc(-c3ccnc(C)c3C)cc2)C(=O)O)OC[C@@H](c2ccc(OCc3ccc(Cl)c(Cl)c3)cc2)O4)c(C)o1` [Example 428, (S)-2-{[(3R,8S)-3-[4-(3,4-Dichloro-benzyloxy)-phenyl]-7-(2,5-dimethyl-oxazole-4-carbonyl)-2,3,6,7,8,9-hexahydro-[1,4]dioxino[2,3-g]isoquinoline-8-carbonyl]-amino}-3-[4-(2,3-dimethyl-pyridin-4-yl)-phenyl]-propionic acid], the EC50 was found to be 0.022 µM.
For the compound `Cc1nccc(-c2ccc(C[C@H](NC(=O)[C@@H]3Cc4cc5c(cc4CN3C(=O)N[C@H](C)c3ccccc3)O[C@H](c3ccc(OCc4ccc(Cl)c(Cl)c4)cc3)CO5)C(=O)O)cc2)c1C` [Example 429, (S)-2-{[(3R,8S)-3-[4-(3,4-Dichloro-benzyloxy)-phenyl]-7-((R)-1-phenyl-ethylcarbamoyl)-2,3,6,7,8,9-hexahydro-[1,4]dioxino[2,3-g]isoquinoline-8-carbonyl]-amino}-3-[4-(2,3-dimethyl-pyridin-4-yl)-phenyl]-propionic acid], the EC50 was determined as 0.032 µM.
The figure for `CC[C@@H](c1ccccc1)N1Cc2cc3c(cc2C[C@H]1C(=O)N[C@@H](Cc1ccc(-c2ccnc(C)c2C)cc1)C(=O)O)OC[C@@H](c1ccc(OCc2ccc(Cl)c(Cl)c2)cc1)O3` [Example 430, (S)-2-{[(3R,8S)-3-[4-(3,4-Dichloro-benzyloxy)-phenyl]-7-((S)-1-phenyl-propyl)-2,3,6,7,8,9-hexahydro-[1,4]dioxino[2,3-g]isoquinoline-8-carbonyl]-amino}-3-[4-(2,3-dimethyl-pyridin-4-yl)-phenyl]-propionic acid] is 0.012 µM; for `Cc1nc(C(=O)N2Cc3cc4c(cc3C[C@H]2C(=O)N[C@@H](Cc2ccc(-c3ccnc(C)c3C)cc2)C(=O)O)OC[C@H](c2ccc(OCc3ccc(Cl)c(Cl)c3)cc2)O4)co1` [Example 431, (S)-2-{[(3S,8S)-3-[4-(3,4-Dichloro-benzyloxy)-phenyl]-7-(2-methyl-oxazole-4-carbonyl)-2,3,6,7,8,9-hexahydro-[1,4]dioxino[2,3-g]isoquinoline-8-carbonyl]-amino}-3-[4-(2,3-dimethyl-pyridin-4-yl)-phenyl]-propionic acid] it is 0.031 µM; for `Cc1nc(C)c(C(=O)N2Cc3cc4c(cc3C[C@H]2C(=O)N[C@@H](Cc2ccc(-c3ccnc(C)c3C)cc2)C(=O)O)OC[C@H](c2ccc(OCc3ccc(Cl)c(Cl)c3)cc2)O4)o1` [Example 432, (S)-2-{[(3S,8S)-3-[4-(3,4-Dichloro-benzyloxy)-phenyl]-7-(2,4-dimethyl-oxazole-5-carbonyl)-2,3,6,7,8,9-hexahydro-[1,4]dioxino[2,3-g]isoquinoline-8-carbonyl]-amino}-3-[4-(2,3-dimethyl-pyridin-4-yl)-phenyl]-propionic acid] it is 0.021 µM.
The figure for `Cc1nccc(Oc2ccc(C[C@H](NC(=O)[C@@H]3Cc4cc5c(cc4CN3S(=O)(=O)C(C)C)O[C@@H](c3ccc(OCc4ccc(Cl)c(Cl)c4)cc3)CO5)C(=O)O)cc2)c1C` [Example 436, (S)-2-{[(3S,8S)-3-[4-(3,4-Dichloro-benzyloxy)-phenyl]-7-(propane-2-sulfonyl)-2,3,6,7,8,9-hexahydro-[1,4]dioxino[2,3-g]isoquinoline-8-carbonyl]-amino}-3-[4-(2,3-dimethyl-pyridin-4-yloxy)-phenyl]-propionic acid] is 0.32 µM.
The figure for `Cc1nccc(-c2ccc(C[C@H](NC(=O)[C@@H]3Cc4cc5c(cc4CN3C(=O)NC3(C)CCCCC3)O[C@@H](c3ccc(OCc4ccc(Cl)c(Cl)c4)cc3)CO5)C(=O)O)cc2)c1C` [Example 438, (S)-2-{[(3S,8S)-3-[4-(3,4-Dichloro-benzyloxy)-phenyl]-7-(1-methyl-cyclohexylcarbamoyl)-2,3,6,7,8,9-hexahydro-[1,4]dioxino[2,3-g]isoquinoline-8-carbonyl]-amino}-3-[4-(2,3-dimethyl-pyridin-4-yl)phenyl]-propionic acid] is 0.037 µM; for `Cc1nc(C(=O)N2Cc3cc4c(cc3C[C@H]2C(=O)N[C@@H](Cc2ccc(-c3ccc(F)cc3)cc2)C(=O)O)OC[C@H](c2ccc(OCc3ccc(Cl)c(Cl)c3)cc2)O4)c(C)o1` [Example 440, (S)-2-{[(3S,8S)-3-[4-(3,4-Dichloro-benzyloxy)-phenyl]-7-(2,5-dimethyl-oxazole-4-carbonyl)-2,3,6,7,8,9-hexahydro-[1,4]dioxino[2,3-g]isoquinoline-8-carbonyl]-amino}-3-(4′-fluoro-biphenyl-4-yl)-propionic acid] it is 0.387 µM.
For `Cc1nccc(-c2ccc(C[C@H](NC(=O)[C@@H]3Cc4cc5c(cc4CN3C(=O)c3ccccc3)O[C@@H](c3ccc(OCC4CCCCC4)cc3)CO5)C(=O)O)cc2)c1C` [Example 442, (S)-2-{[(3S,8S)-7-Benzoyl-3-(4-cyclohexylmethoxy-phenyl)-2,3,6,7,8,9-hexahydro-[1,4]dioxino[2,3-g]isoquinoline-8-carbonyl]-amino}-3-[4-(2,3-dimethyl-pyridin-4-yl)-phenyl]-propionic acid], the EC50 was determined as 0.208 µM.
